Experiment: gradient 5% acetonitrile 3 min, to 50% in 2 min, to 85% in 15 min, held 3 min, 100 µL/min
Conditions: column: Zorbax Extend-C18 2.1 x 50 mm; eluents: water / acetonitrile, 0.1% formic acid
Summary of the method: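 Retention times of pure standards were taken from adduct peaks that were selected by computer and manually inspected. Over 3 months, mixtures of ~100 molecules were run by HPLC–quadrupole time-of-flight mass spectrometry in positive and negative ionization mode. The Zorbax Extend-C18 column (2.1 × 50 mm, 1.8 μm) ran at 100 μL/min in water and acetonitrile, each containing 0.1% formic acid, with 40 μL dead volume and 900 μL dwell volume.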

Row | SMILES | RP-LC retention time [s]
1 | Cc1ccc(C)c(N2CCN(C(=O)C3CCN(S(=O)(=O)c4cn(C)cn4)CC3)CC2)c1 | 832
2 | O=C(Nc1ccc2c(c1)OCCO2)c1c(O)c2cccnc2n(-c2ccccc2)c1=O | 1150
3 | Cc1ccnc(NC(=O)C2CC(=O)N(c3n[nH]c4cccc(F)c34)C2)c1 (centres undefined) | 602
4 | O=C(CCn1ccnc1)N1CCC2(CCC(=O)N(CC3CC3)CC2)CC1 | 577
5 | Cc1ccc2c(c1)C(O)(CC(=O)c1ccc(NC(=O)C3CCCCC3)cc1)C(=O)N2 (centres undefined) | 766
6 | CCc1ccc(CN2C(=O)c3ccccc3C2C(=O)NCCCOC)cc1 (centres undefined) | 819
7 | Cc1nc(C)c(C(=O)N2CCC3(CC2)CCC(O)(CN(C)C)CC3)s1 | 555
8 | O=C(CCn1nnc2cc(-c3noc(CCC4CCCC4)n3)ccc21)N1CCCC1 | 1050
9 | COCc1cc(=O)n(CC(=O)Nc2ccccc2OC)c(N2CCOCC2)n1 | 846
10 | COc1cc(NC(=O)Cn2nc3nc(N4CCCC(C)C4)ccn3c2=O)cc(OC)c1 (centres undefined) | 770
11 | Cc1ccc(C)c(S(=O)(=O)Nc2ccc(C(=O)Nc3ccccc3F)cc2)c1 | 863
12 | COc1ccc(OC)c(NC(=O)Cn2cnc3nc4c(cc3c2=O)CCCC4)c1 | 676
13 | CCc1noc2nc(C)n(CC(=O)NCc3ccc(F)cc3)c(=O)c12 | 797
14 | O=C(c1n[nH]c(=O)c2ccccc12)N1C[C@H]2C[C@H](C1)[C@H]1CCCC(=O)N1C2 | 598
15 | CCOc1ccc(-c2noc(CN3C(=O)COc4ccccc43)n2)cc1 | 1030
16 | COc1ccc(C(=O)n2c(SC)nc3ccccc32)cc1OC | 827
17 | CCOC(=O)c1nc(Nc2ccc(C(C)C)cc2)c2ccccc2n1 | 1020
18 | Cc1c(C(=O)NC2CC2)c(C)n(C)c1-c1ccccc1 | 830
19 | CCOCC(=O)N1CCN(S(=O)(=O)c2c(C)nn(C(C)C)c2C)CC1 | 702

Row | SMILES | RP-LC retention time [s]
20 | COc1ccc(-c2cc(N3CCN(C(=O)NCCC(C)C)CC3)ncn2)cc1 | 670
21 | O=C(Nc1ccnn1Cc1ccccc1)c1cc(=O)c2cc(Cl)ccc2o1 | 867
22 | Cc1ccc(S(=O)(=O)N2CCCC2c2nc(-c3ccc(Cl)cc3)no2)cc1F (centres undefined) | 1230
23 | Cn1nccc1C(=O)N1CCN(S(=O)(=O)c2ccc3c(c2)sc(=O)n3C)CC1 | 699
24 | COc1ccccc1CNC(=O)Cn1nc2c(N3CCCCCC3)nccn2c1=O | 694
25 | Cc1ccc(Cn2c(N3CCCC(C(=O)NCc4ccccc4)C3)nc3ccsc3c2=O)cc1 (centres undefined) | 958
26 | COc1ccccc1-c1nc(-c2ccc3c(c2)oc(=O)n3C(C)C)no1 | 1090
27 | O=C(Cc1csc(-c2ccccc2)n1)Nc1nc(-c2ccc(F)cc2)cs1 | 1140
28 | COCCn1cc2c3c(cccc31)CN(C(=O)c1ccc(Br)o1)CC2 | 976
29 | Cc1ccc(CNC(=O)c2cc3sc(Cl)cc3n2C)cc1 | 1110
30 | O=C(NCc1ccccc1Cl)C1CCCN(c2nccnc2Sc2ccccc2)C1 (centres undefined) | 1070
31 | Cc1ccc(CNC(=O)CN2CCc3ccccc3C2C(=O)N2CCC(C)CC2)cc1C (centres undefined) | 1030
32 | Cc1noc(-c2ccc(=O)n(CC(C)C)n2)n1 | 761
33 | CCCNC(=O)CN1CCN(c2cc(C(=O)O)c3cc(NC(=O)C(C)C)ccc3n2)CC1 | 568
34 | CN(C)c1cc(N2CCCC(NC(=O)Cc3ccccc3)C2)ncn1 (centres undefined) | 795
35 | Cc1nc(CC(=O)Nc2ccc(F)cc2F)sc1C(=O)NC1CC1 | 696
36 | Cc1ccc2c(Nc3ccc4c(c3)OCO4)c(C(=O)N3CCOCC3)cnc2n1 | 765
37 | COc1ccc2ncc(C#N)c(Nc3cc(OC)c(OC)c(OC)c3)c2c1 | 626
38 | CCc1onc(C)c1C1CCCN1C(=O)c1ccccc1F (centres undefined) | 775

The remaining lines, values ahead:

Row | RP-LC retention time [s] | SMILES
39 | 603 | O=C([C@@H]1C[C@H](Oc2ccccc2)CN1C(=O)c1ccco1)N1CCCC1
40 | 790 | O=C(Nc1ccccc1F)C1CCN(S(=O)(=O)c2cc(C(=O)N3CCCC3)cs2)CC1
41 | 766 | O=S(=O)(c1ccc(F)cc1F)N1CCCC(Cn2c(C3CC3)nc3cccnc32)C1 (centres undefined)
42 | 668 | Cn1ccc2cc(S(=O)(=O)N3CCCC(C(=O)NCCCN4CCCCCC4)C3)ccc21 (centres undefined)
43 | 1060 | COC(=O)c1ccc(NC(=O)CSc2nnc3c4cc(-c5ccccc5)nn4ccn23)cc1
44 | 961 | CC(C)(C)C(=O)Oc1ccc(S(=O)(=O)Nc2ccccc2C(=O)NCC(=O)O)cc1
45 | 1160 | O=C(NCc1ccccc1)c1c(O)c2cccnc2n(-c2ccccc2)c1=O
46 | 684 | COc1ccc(C(=O)Nc2cnn(C)c(=O)c2N2CCOCC2)cc1OC
47 | 712 | CCn1cnc(S(=O)(=O)N2CCCC(C(=O)NCc3ccc(F)cc3)C2)c1 (centres undefined)
48 | 798 | Cc1c(C(=O)N2CCN(S(C)(=O)=O)CC2)nnn1-c1nc2c(s1)CCCC2
49 | 725 | C/C=C(/C)C(=O)O[C@H]1CC(C)=CC(=O)[C@@]2(C)CC[C@@](O)(C(C)C)[C@H]12
50 | 778 | Cc1nc2ccccc2c(=O)n1-c1ccc(NC(=O)C2CCN(S(=O)(=O)N3CCCC3)CC2)cc1
51 | 997 | Cc1ccc(C)c(N2CCN(c3ccnc(SCC(=O)Nc4ccc(F)c(Cl)c4)n3)CC2)c1
52 | 688 | Cc1ccc2oc(-c3nnc(C(=O)NCCCN4CCCC4)o3)c(C)c2c1
53 | 622 | COc1ccccc1-c1c(C)nn2c(SCC(=O)NCCN(C)C)cc(C)nc12
54 | 851 | O=C(Cn1nc2c3sc(N4CCCCC4)nc3ncn2c1=O)Nc1ccc(F)c(F)c1
55 | 630 | Cc1cc(C(=O)NCCCN2CCOCC2)nc2cc(-c3ccccn3)nn12
56 | 804 | CCN(CC)S(=O)(=O)c1ccc2c(c1)CC(C(=O)N1CCCCC1)N2C(C)=O (centres undefined)
57 | 773 | CC(C)[C@H](NC(=O)OCc1ccccc1)C(=O)N[C@H](C=O)Cc1ccccc1
58 | 961 | CCc1ccc(CNC(=O)c2cn(C)nc2S(=O)(=O)N2CCSCC2)cc1
59 | 628 | CC(NC(=O)C1CCN(c2cncnc2N2CCOCC2)CC1)c1ccc(F)cc1 (centres undefined)
60 | 941 | CCCCN(CC)c1nc(-c2ccc(C)cc2)nc2ccccc12
61 | 1040 | CCN1C(=O)COc2ccc(-c3csc(NC(=O)c4ccccc4OC)n3)cc21
62 | 703 | Cc1ccc(NC(=O)Cn2cnc3nc(N4CCCC(C(=O)NC5CC5)C4)sc3c2=O)cc1F (centres undefined)
63 | 778 | CCOC(=O)Cn1c(C2CC(=O)N(c3cc(Cl)ccc3OC)C2)nc2ccccc21 (centres undefined)
64 | 663 | CCc1ccc(-c2nc(-c3ccc4c(c3)nnn4CCN3CCOCC3)no2)cc1

— the METLIN SMRT retention time set (Domingo-Almenara et al. 2019)
